According to BindingDB's records for doi:10.1021/acsmedchemlett.8b00461 (Pfizer, 2019):

Legend:
[1] = Inhibition of BTK in anti-CD3/CD28-stimulated human CD4-positive T cells assessed as reduction in cell proliferation pretreated for 30 mins followed by anti-CD3/CD28-stimulation and measured after 3 days by [3H]-thymidine incorporation assay
[2] = Inhibition of BTK in goat anti-human IgM F(ab')2-stimulated human B cells assessed as reduction in cell proliferation pretreated for 30 mins followed by goat anti-human IgM F(ab')2-stimulation and measured after 3 days by [3H]-thymidine incorporation assay

Row | Structure (SMILES) | IC50 [1] [nM] | IC50 [2] [nM]
1 | N#CN1CCC[C@@H](n2nc(-c3ccc(Oc4cccc(C(F)(F)F)n4)cc3)c(C(N)=O)c2N)C1 | 10100 | 15
2 | N#CN1CCC[C@@H](n2nc(-c3ccc(Oc4ccc(Cl)cn4)cc3)c(C(N)=O)c2N)C1 | > 10000 | 1.6
3 | N#CN1CCC[C@@H](n2nc(-c3ccc(Oc4ccc(F)cc4F)cc3)c(C(N)=O)c2N)C1 | > 10000 | 2.7
4 | N#CN1CCCC(n2nc(-c3ccc(Oc4ccc(Cl)cc4)cc3)c(C(N)=O)c2N)C1 (single isomer, unassigned) | 8150 | 1.7
5 | N#CN1CCC[C@@H](n2nc(-c3ccc(Oc4ncc(Cl)cc4F)cc3)c(C(N)=O)c2N)C1 [(R)-5-amino-3-(4-((5-chloro-3-fluoropyridin-2-yl)oxy)phenyl)-1-(1-cyanopiperidin-3-yl)-1H-pyrazole-4-carboxamide] | > 10000 | 19
